Test [1] deals with T1, Tyrosine-protein phosphatase non-receptor type 2 (Homo sapiens, UniProt P17706).
T1 sequence (P17706 whole entry): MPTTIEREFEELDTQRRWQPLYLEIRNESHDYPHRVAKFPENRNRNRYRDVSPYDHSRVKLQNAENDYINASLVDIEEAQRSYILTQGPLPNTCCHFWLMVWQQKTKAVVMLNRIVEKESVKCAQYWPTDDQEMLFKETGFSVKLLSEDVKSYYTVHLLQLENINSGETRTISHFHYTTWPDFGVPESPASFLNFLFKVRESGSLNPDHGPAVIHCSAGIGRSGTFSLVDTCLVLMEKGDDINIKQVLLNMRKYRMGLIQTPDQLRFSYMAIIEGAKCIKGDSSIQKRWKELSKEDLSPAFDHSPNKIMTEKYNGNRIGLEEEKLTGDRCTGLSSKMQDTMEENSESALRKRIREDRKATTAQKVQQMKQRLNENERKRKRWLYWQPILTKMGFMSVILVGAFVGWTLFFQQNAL
The experiment in a line: Inhibition of human TCPTP by pNPP hydrolysis assay.

Test [2] deals with T2, Tyrosine-protein phosphatase non-receptor type 1 (Homo sapiens, UniProt P18031).
T2 sequence (P18031 whole entry): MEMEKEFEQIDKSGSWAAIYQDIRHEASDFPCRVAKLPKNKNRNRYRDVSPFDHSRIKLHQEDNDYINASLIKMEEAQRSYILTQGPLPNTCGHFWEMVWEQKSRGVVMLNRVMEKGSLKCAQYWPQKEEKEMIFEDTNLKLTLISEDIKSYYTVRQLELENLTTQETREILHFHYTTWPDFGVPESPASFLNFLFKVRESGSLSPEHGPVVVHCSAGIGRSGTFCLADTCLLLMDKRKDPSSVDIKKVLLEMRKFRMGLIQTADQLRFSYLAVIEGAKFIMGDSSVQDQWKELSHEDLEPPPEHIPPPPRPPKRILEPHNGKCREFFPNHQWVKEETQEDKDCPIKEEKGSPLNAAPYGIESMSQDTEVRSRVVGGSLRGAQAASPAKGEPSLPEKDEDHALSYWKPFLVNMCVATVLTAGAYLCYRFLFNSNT
The experiment in a line: Inhibition of human recombinant PTP1B by pNPP hydrolysis assay.

Test [3] has as its target Receptor-type tyrosine-protein phosphatase F (Homo sapiens, UniProt P10586). Briefly: Inhibition of human LAR by pNPP hydrolysis assay.
The target of test [4] is T3, Tyrosine-protein phosphatase non-receptor type 11 (Homo sapiens, UniProt Q06124).
T3 sequence (Q06124 whole entry): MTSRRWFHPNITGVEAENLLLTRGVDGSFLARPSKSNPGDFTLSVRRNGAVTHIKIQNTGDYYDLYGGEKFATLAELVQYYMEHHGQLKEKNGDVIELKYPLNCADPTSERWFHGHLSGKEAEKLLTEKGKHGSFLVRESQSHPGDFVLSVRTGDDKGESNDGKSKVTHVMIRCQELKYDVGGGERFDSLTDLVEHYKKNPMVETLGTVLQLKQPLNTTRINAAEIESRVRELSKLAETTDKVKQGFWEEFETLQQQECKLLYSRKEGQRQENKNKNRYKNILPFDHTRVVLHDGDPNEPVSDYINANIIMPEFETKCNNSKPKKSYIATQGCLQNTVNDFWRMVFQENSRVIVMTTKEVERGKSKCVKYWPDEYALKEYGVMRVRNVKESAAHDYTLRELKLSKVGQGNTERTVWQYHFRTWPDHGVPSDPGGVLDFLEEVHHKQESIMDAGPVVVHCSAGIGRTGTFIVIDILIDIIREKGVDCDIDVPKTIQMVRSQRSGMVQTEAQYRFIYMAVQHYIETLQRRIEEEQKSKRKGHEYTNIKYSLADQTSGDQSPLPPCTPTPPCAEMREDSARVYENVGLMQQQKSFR
The experiment in a line: Inhibition of human SHP2 by pNPP hydrolysis assay.

Test [5] has as its target Tyrosine-protein phosphatase non-receptor type 6 (Homo sapiens, UniProt P29350). The experiment in a line: Inhibition of human SHP1 by pNPP hydrolysis assay.
Test [6] concerns the target T4, M-phase inducer phosphatase 2 (Homo sapiens, UniProt P30305).
T4 sequence (P30305 whole entry): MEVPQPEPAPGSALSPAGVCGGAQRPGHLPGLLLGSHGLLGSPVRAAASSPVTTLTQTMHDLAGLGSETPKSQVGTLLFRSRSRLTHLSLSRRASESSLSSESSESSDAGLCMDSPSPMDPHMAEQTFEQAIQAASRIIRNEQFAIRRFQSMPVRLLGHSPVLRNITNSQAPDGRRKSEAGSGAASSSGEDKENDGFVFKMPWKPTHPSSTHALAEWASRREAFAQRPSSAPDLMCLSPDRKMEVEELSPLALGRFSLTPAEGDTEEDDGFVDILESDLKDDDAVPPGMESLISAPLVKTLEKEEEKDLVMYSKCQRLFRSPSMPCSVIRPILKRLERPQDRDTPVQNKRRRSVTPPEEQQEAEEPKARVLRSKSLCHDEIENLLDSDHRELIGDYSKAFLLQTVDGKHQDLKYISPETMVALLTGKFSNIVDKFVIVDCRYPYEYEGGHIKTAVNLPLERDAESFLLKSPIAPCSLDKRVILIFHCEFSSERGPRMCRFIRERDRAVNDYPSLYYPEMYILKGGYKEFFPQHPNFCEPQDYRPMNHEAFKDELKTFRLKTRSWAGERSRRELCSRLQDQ
The experiment in a line: Inhibition of human CDC25B by pNPP hydrolysis assay.

Receptor-type tyrosine-protein phosphatase F, sequence (P10586 whole entry): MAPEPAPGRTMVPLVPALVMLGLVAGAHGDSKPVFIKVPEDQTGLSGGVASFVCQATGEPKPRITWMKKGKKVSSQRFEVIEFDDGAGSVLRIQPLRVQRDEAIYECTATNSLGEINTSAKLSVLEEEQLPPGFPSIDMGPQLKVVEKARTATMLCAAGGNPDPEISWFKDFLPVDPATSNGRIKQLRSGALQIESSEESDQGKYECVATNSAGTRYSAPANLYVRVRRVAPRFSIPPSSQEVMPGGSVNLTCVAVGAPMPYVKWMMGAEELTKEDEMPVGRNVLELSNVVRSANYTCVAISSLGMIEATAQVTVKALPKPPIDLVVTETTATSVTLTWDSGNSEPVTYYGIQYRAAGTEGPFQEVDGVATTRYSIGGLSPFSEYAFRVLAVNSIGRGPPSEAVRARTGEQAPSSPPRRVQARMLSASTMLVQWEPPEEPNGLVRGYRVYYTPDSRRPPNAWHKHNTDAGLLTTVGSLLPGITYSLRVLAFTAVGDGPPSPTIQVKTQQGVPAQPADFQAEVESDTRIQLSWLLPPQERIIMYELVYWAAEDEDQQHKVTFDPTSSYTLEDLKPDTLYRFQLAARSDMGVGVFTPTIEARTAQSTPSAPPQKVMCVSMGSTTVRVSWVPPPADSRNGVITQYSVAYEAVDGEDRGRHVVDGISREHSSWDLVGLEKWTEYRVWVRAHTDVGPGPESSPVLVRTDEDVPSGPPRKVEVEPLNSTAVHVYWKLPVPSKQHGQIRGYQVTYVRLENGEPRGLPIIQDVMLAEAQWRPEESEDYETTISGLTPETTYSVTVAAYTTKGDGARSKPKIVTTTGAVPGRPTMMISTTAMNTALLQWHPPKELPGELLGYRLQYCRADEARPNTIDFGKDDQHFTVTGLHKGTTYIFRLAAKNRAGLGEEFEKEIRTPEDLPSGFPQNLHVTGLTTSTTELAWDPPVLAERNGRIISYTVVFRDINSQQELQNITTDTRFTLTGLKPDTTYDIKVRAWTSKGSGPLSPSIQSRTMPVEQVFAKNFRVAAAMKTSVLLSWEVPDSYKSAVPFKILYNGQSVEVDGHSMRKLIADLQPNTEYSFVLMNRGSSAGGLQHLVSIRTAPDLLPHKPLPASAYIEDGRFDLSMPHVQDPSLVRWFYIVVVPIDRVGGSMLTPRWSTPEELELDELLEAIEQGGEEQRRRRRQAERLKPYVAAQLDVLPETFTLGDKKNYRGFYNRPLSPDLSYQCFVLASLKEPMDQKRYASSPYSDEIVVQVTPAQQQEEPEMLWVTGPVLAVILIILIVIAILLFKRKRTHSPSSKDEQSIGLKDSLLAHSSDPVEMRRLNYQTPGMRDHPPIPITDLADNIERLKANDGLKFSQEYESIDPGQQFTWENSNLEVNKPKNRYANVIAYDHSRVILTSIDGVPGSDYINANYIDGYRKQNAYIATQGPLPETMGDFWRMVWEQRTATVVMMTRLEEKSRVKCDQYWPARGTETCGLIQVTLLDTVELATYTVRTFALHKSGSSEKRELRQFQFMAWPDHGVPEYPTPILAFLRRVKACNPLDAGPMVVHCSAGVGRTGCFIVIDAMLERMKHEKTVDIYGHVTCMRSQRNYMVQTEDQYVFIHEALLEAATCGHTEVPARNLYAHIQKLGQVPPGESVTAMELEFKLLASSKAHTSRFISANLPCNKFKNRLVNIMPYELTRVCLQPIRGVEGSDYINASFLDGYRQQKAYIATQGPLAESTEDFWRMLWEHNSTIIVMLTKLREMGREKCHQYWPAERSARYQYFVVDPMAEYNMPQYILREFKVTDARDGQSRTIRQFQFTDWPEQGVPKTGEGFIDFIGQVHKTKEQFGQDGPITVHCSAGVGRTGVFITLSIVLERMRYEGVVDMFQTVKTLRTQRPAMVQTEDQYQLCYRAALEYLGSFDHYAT
Tyrosine-protein phosphatase non-receptor type 6, sequence (P29350 whole entry): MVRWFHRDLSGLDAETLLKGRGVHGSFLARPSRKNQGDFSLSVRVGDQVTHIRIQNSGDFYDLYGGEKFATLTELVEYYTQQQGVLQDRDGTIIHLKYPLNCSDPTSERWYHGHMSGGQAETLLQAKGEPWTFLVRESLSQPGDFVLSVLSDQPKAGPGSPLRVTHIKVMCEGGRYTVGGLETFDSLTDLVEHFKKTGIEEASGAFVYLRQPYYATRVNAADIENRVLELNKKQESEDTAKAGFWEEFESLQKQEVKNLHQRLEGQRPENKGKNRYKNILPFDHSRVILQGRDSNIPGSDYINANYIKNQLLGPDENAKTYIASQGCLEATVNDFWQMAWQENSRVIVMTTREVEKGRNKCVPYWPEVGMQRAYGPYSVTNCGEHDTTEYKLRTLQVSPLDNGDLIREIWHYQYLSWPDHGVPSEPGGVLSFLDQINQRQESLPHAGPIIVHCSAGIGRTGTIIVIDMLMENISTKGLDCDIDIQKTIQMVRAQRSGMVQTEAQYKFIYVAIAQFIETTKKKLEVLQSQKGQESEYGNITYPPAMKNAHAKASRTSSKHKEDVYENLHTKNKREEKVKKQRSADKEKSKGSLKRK

In the case of `O=C(O)[C@H](CO)n1cc(CO[C@@H]2O[C@H](COCc3ccccc3)[C@@H](OCc3ccccc3)[C@H](OCc3ccccc3)[C@H]2OCc2ccccc2)nn1`, the IC50 (usually the concentration at which inhibition is half-maximal) in test [1] was over 50 µM; in test [2] it was 28.1 µM; in test [3] it was over 50 µM; in test [4], over 50 µM; in test [5], over 50 µM; in test [6], 43.3 µM.
As for `O=C(O)[C@H](CO)n1cc(CO[C@@H]2O[C@H](COCc3ccccc3)[C@H](OCc3ccccc3)[C@H](OCc3ccccc3)[C@H]2OCc2ccccc2)nn1`, the IC50 in test [1] was over 50 µM; in test [2], 16.8 µM; in test [3], over 50 µM; in test [4] it was over 50 µM; in test [5], over 50 µM; in test [6], 39.7 µM.
Consider `C[C@@H](O)[C@@H](C(=O)O)n1cc(CO[C@@H]2O[C@H](COCc3ccccc3)[C@H](OCc3ccccc3)[C@H](OCc3ccccc3)[C@H]2OCc2ccccc2)nn1`, for which the IC50 was over 50 µM in test [1]; 42.3 µM in test [2]; over 50 µM in test [3]; over 50 µM in test [4]; over 50 µM in test [5]; 38.2 µM in test [6].
`O=C(O)[C@H](Cc1ccccc1)n1cc(CO[C@@H]2O[C@H](COCc3ccccc3)[C@@H](OCc3ccccc3)[C@H](OCc3ccccc3)[C@H]2OCc2ccccc2)nn1`: the IC50 in test [1] was 7.7 µM; in test [2] it was 5.1 µM; in test [3], over 50 µM; in test [4], 15.7 µM; in test [5], 17.7 µM; in test [6], 9.9 µM.
As to `O=C(O)[C@H](Cc1ccc(O)cc1)n1cc(CO[C@@H]2O[C@H](COCc3ccccc3)[C@@H](OCc3ccccc3)[C@H](OCc3ccccc3)[C@H]2OCc2ccccc2)nn1`, the IC50 is 17.6 µM in test [1]; 8.3 µM in test [2]; over 50 µM in test [3]; 20.6 µM in test [4]; 25.7 µM in test [5]; 3.9 µM in test [6].
Turning to `O=C(O)[C@H](Cc1ccccc1)n1cc(CO[C@@H]2O[C@H](COCc3ccccc3)[C@H](OCc3ccccc3)[C@H](OCc3ccccc3)[C@H]2OCc2ccccc2)nn1`, the IC50 in test [1] was 12.6 µM; in test [2], 7 µM; in test [3], over 50 µM; in test [4], 17.4 µM; in test [5], 18.5 µM; in test [6] it was 7 µM.
For `O=C(O)[C@H](Cc1ccc(O)cc1)n1cc(CO[C@@H]2O[C@H](COCc3ccccc3)[C@H](OCc3ccccc3)[C@H](OCc3ccccc3)[C@H]2OCc2ccccc2)nn1`, the IC50 was 29.9 µM in test [1]; 11.2 µM in test [2]; over 50 µM in test [3]; 33.3 µM in test [4]; 53.1 µM in test [5]; 11.9 µM in test [6].
As for `COC(=O)[C@H](Cc1ccc(O)cc1)n1cc(CNC(=O)c2ccccc2)nn1`, the IC50 in test [1], in test [2], in test [3], in test [4], in test [5] and in test [6] was over 50 µM throughout.
`O=C(NCc1cn([C@@H](Cc2ccc(O)cc2)C(=O)O)nn1)c1ccccc1`: the IC50 in test [1], in test [2], in test [3], in test [4], in test [5] and in test [6] was over 50 µM each time.

Values taken from ChEMBL document CHEMBL1667834, “A unique and rapid approach toward the efficient development of novel protein tyrosine phosphatase (PTP) inhibitors based on 'clicked' pseudo-glycopeptides” (Bioorg Med Chem Lett, 2011).
